Laboratory results reported in patent publication US20230212517A1, “METHODS FOR GENERATING HEMATOPOIETIC STEM CELLS” (The Brigham and Women's Hospital, Inc., priority 2018, published 2023).
“Also recorded” adds a separate entry of the source.

How the values were obtained:
[1] = tested on: E11.5 AGM-derived HSCs; experiment: Serial transplantation of treated E11.5 AGM-derived HSCs into lethally irradiated mice; assay type: in vivo, mouse; details: for multi-lineage reconstitution (myeloid, T-cells, B-cells) in primary transplant / peripheral blood chimerism / engraftment in primary transplant: primary recipients; for multi-lineage reconstitution (myeloid, T-cells, B-cells) in primary transplant: week 16; for peripheral blood chimerism / engraftment in primary transplant: weeks 8-16, three embryo equivalent treated AGM donor cells
Procedure: Pulsating blood vessels like conditions were stimulated in vitro using FLEXCELL FX-4000 cell stretching bioreactor machine. To analyze roles of pharmacological targets in regulating the endothelial-to-HSC transition, mouse embryo-derived AGM or whole mouse embryo were exposed ex vivo with biomechanical stretching, chemicals, or drugs. Next, hematopoietic colony formation assays were performed by incubating mouse AGM-derived cells in StemCell M3434 media for seven days. Serial transplantation of AGM-derived HSCs in lethally irradiated SJL mice were performed. The stem cell frequency upon biomechanical stretching was analyzed using a limiting dilution assay. To characterize properties of AGM-HSC-derived blood cells in primary transplants, percentage chimerism and reconstitution was measured using FACS, globin transcripts were analyzed using quantitative reverse transcriptase-PCR, myeloperoxidase amount was measured using PICOKINE ELISA kit, TCR-β rearrangement was analyzed using PCR for TCR-β locus, pre-immune IG detection was analyzed using Thermo-Fisher Mouse Ig Isotyping kit, and delayed-type hypersensitivity was analyzed by injecting sheep RBC (Rockland Immunochemicals) in the footpad of pre-sensitized mice.
For primary transplantation, three-embryo equivalents of untreated or treated (cyclic strain or 25 μM Yoda1) AGMs plus splenic helper cells (˜500,000 per mouse) were injected into lethally irradiated (split dose […]) Cd45.1 (SJL) mice by retro-orbital injection. For secondary and tertiary transplants, the bone marrow was isolated (legs, arm, pelvic bone, spine, sternum) from the transplanted mice. The bone marrow was loaded on a FICOLL gradient (HISTOPAQUE-1083 solution, Sigma-Aldrich), and the cells from the buffy coat incubated with biotin-conjugated lineage antibodies and streptavidin microbeads (Miltenyi Biotec). Next, the lineage negative (Lin) cells were separated with MACS LS Columns (Miltenyi Biotec), and the donor Cd45.2 Lin^−Sca1^+-Kit^+ (LSK) cells sorted with a MoFlo Beckman Coulter sorter. Subsequently, the sorted Cd45.2 LSK cells were mixed with Cd45.1 splenic helper cells (˜500,000 per mouse) and transplanted into Cd45.1 irradiated (split dose […]) SJL mice by retro-orbital injection.
AGM cells from explants and ex vivo were stained with Sca1-Pacific-Blue (E13-161.7, Biolegend) and Flk1-APC-Cy7 (Avas 12α1, BD). Blood from transplanted mice was stained with the following antibody cocktail: Cd45.2-Pacific-Blue (104, Biolegend), Cd45.1-FITC (A20, Biolegend), Cd3-PE (145-2C11, Biolegend), Cd8-PE (53-6.7, Biolegend), Mac1-APC (M1/70, Biolegend), Gr1-APC (108412, Biolegend), Cd19-APC-CY7 (6D5, Biolegend), B220-APC-CY7 (RA3-6B2, Biolegend).
Cells from the bone marrow, spleen, thymus, and lymph node from mice transplanted with E11.5 AGM cells were stained with the following antibody panels: Bone marrow LT-HSC: Cd45.2-FITC (104, Biolegend), Ter119-Biotin (TER-119 BD), Gr1-Biotin (RB6-8C5, BD), Cd5-Biotin (53-7.3, BD), Cd8a-Biotin (53-6.7, BD), B220-Biotin (RA3-6B2, BD), Streptavidin-Pacific Blue (eBioscience), Sca1-PE-CY7 (D7, eBioscience), cKit-APC (2B8, eBioscience), Cd48-APC-CY7 (HM48-1, BD), Cd150-PE-CY5 (TC15-12F12.2, Biolegend). Erythroid development RI-RV in bone marrow: Cd45.2-Pacific-Blue (104, Biolegend), Cd45.1-FITC (A20, Biolegend), Ter119-APC (TER-119, Biolegend), Cd71-PE (R17217, eBioscience). Bone marrow granulocytes: Cd45.2-Pacific-Blue (104, Biolegend), Cd45.1-FITC (A20, Biolegend), Gr1-PE, (RB6-8C5, BD); Mac1-APC (M1/70, Biolegend). Spleen, thymus and lymph nodes T Cells: Cd45.2-Pacific-Blue (104, Biolegend), Cd45.1-FITC (A20, Biolegend), Cd8-PE (53-6.7, Biolegend), Cd4-APC (RM4-5, eBioscience). Spleen, thymus and lymph node myeloid and B cells: Cd45.2-Pacific-Blue (104, Biolegend), Cd45.1-FITC (A20, Biolegend), Cd19-APC-CY7 (6D5, Biolegend), Mac1-APC (M1/70, Biolegend). We performed all FACS analyses on a BD Fortessa cytometer. […]

[2] = tested on: Dnmt3a; experiment: Dnmt3a protein level in nuclear fractions of E11.5 AGM cells (EPIQUIK assay kit); assay type: cell-based, mouse; details: nuclear fractions of treated E11.5 AGM cells
Procedure: RNA-sequencing analyses were performed to measure gene expression patterns in mouse AGM treated with cyclic strain or pharmacological modulators. Using computational algorithms, hierarchical clustering was performed of differentially expressed genes as well as measured their overrepresented biological processes and pathways. Gene expression clusters of differentially expressed genes were analyzed and their mean expression level across cell populations compared. Next, Venn comparison of up- and down-genes was constructed to analyze candidate(s) important for cyclic strain- or pharmacological modulator(s)-mediated the endothelial-to-HSC transition. Furthermore, Dnmt3b and Dnmt3a protein expressions were analyzed in nuclear fractions of mouse AGM cells using EPIQUIK methyltransferase assay kits. Data are presented as mean±s.d. unless otherwise noted. Statistical analyses were performed by paired or un-paired Student's t-tests. Significance was set at P<0.05.
Nuclear extracts from AGM explants were harvested using an EPIQUIK Nuclear Extraction Kit (Epigentek Group Inc.). Dnmt3b and Dnmt3a protein levels were analyzed using a colorimetric EPIQUIK methyltransferase Assay Kit (Epigentek Group Inc.), according to the manufacturer's instructions. Concentration of Dnmt3b and Dnmt3a is relative to 1 μg of nuclear extract proteins.

## Clc1cccc(Cl)c1CSc1nnc(-c2cnccn2)s1 [Yoda1, 2-[5-[[(2,6-Dichlorophenyl)methyl]thio]-1,3,4-thiadiazol-2-yl]-pyrazine]
[1]
  multi-lineage reconstitution (myeloid, T-cells, B-cells) in primary transplant: stimulates the formation of HSCs that reconstitute to the blood
  peripheral blood chimerism / engraftment in primary transplant: stimulates the formation of HSCs
[1]; listed as Piezo1 activator
  multi-lineage reconstitution (myeloid, T-cells, B-cells) in primary transplant: normal multi-lineage reconstitution
  peripheral blood chimerism / engraftment in primary transplant: higher engraftment
[1]; secondary recipients, week 12
  multi-lineage reconstitution in secondary transplant: produces HSCs that can serially reconstitute to the blood
[1]; secondary recipients, weeks 8-12, 2000 sorted Lin-Sca1+c-Kit+ HSPCs
  peripheral blood chimerism in secondary transplant: produces HSCs that have serial engraftment and self-renewal capacities
[1]; vs. control AGM
  amount of Lin-Sca1+c-Kit+Cd48-Cd150+ HSCs in bone marrow of primary recipients: two- to three-times higher amount
[2]
  Dnmt3a protein expression level: not Dnmt3a; also recorded: without impacting the expression of Dnmt3a
